Test results reported in US6984649B1, “Pyridine derivatives” (Bayer Aktiengesellschaft, priority 2000, dated 2006).
Counter-ions that a name gives are not always drawn.

Target: T1, human IKK-β (Homo sapiens, UniProt O14920)
T1 construct: A cDNA fragment encoding human IKK-β open reading frame was generated by PCR; His tag (from pcDNA3.1/His C); made in house; host or cells: Sf21 insect cells (baculovirus); substrate made in E. coli
T1 sequence (O14920 1-756): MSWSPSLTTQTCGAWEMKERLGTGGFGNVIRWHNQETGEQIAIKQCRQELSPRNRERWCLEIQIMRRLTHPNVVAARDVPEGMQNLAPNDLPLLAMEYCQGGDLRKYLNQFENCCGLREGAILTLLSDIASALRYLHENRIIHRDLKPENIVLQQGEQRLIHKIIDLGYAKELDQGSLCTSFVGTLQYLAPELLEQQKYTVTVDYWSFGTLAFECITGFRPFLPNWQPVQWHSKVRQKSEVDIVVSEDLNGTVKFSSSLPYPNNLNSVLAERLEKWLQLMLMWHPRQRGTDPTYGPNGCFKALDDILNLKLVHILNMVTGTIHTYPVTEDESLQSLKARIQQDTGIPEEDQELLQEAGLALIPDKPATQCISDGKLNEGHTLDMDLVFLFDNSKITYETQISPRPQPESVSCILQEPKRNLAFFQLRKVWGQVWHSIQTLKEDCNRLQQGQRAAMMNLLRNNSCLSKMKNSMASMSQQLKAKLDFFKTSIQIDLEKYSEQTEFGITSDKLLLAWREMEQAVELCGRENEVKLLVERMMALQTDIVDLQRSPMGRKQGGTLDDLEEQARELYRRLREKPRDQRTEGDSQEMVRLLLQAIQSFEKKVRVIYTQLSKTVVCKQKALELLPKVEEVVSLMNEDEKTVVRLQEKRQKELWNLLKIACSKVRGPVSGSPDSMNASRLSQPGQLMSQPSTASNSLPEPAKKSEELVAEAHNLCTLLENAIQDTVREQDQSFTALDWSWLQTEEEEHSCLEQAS
Assay: IKK-β kinase inhibitory assay
Type: biochemical
Conditions: compounds as yielded by solid phase synthesis, purity about 40 to 90%, read-out: In vitro activity grade (In vitro IC50)
Method in brief: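 His-tagged human IKK-β from baculovirus-infected Sf21 cells (0.6 μg/ml final) phosphorylates biotinylated GST-IκBα(1-54) (0.2 μM) in Tris-HCl pH 7.6 buffer with MgCl2. ATP with [γ-33P]ATP added, then 2 h at room temperature. Biotinylated substrate captured on streptavidin plates; bound radioactivity counted by scintillation.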

| IC50 | Structure (SMILES) |
| --- | --- |
| < 0.5 µM | N#Cc1c(C2CCCNC2)cc(-c2c(O)cccc2O)nc1N (stereo not shown) [Example 2-1, 2-amino-6-(2,6-dihydroxyphenyl)-4-(3-piperidinyl)nicotinonitrile hydrochloride] |
| < 0.5 µM | N#Cc1c(C2CCNCC2)cc(-c2c(O)cccc2OCC2CC2)nc1N [Example 2-3, hydrochloride] |
| < 0.5 µM | CC(C)(C)OC(=O)c1c(C2CCCNC2)cc(-c2ccccc2O)nc1N (stereo not shown) [Example 9-1, tert-butyl 2-amino-6-(2-hydroxyphenyl)-4-(3-piperidinyl)nicotinate hydrochloride] |
| < 0.5 µM | O=C1NCc2c(C3CCCNC3)cc(-c3ccccc3O)nc2N1 (stereo not shown) [Example 22-1, 7-(2-hydroxyphenyl)-5-(3-piperidinyl)-3,4-dihydropyrido[2,3-d]pyrimidin-2(1H)-one hydrochloride] |
| 2 to 10 µM | Nc1ncnc2nc(-c3c(O)cccc3OCC3CC3)cc(C3CCCNC3)c12 (stereo not shown) [Example 32-1, 2-[4-amino-5-(3-piperidinyl)pyrido[2,3-d]pyrimidin-7-yl]-3-(cyclopropylmethoxy)phenol hydrochloride] |
| < 0.5 µM | Nc1nc(-c2ccccc2O)cc(C2=CCCNC2)c1CO [Example 11-4, 2-[6′-amino-5′-(hydroxymethyl)-1,2,5,6-tetrahydro-3,4′-bipyridin-2′-yl]phenol hydrochloride] |
| 0.5 to 2 µM | N#Cc1c(C2CCCNC2)cc(-c2c(O)cccc2NCc2ccccc2)nc1N (stereo not shown) [Example 1-11, 2-amino-6-[2-(benzylamino)-6-hydroxyphenyl]-4-(3-piperidinyl)nicotinonitrile hydrochloride] |
| 2 to 10 µM | Nc1n[nH]c2nc(-c3ccccc3O)cc(C3CCCNC3)c12 (stereo not shown) [Example 5-1, 2-[3-amino-4-(3-piperidinyl)-1H-pyrazolo[3,4-b]pyridin-6-yl]phenol hydrochloride] |
| < 0.5 µM | CNC(=O)c1c(C2CCCNC2)cc(-c2c(O)cccc2OCC2CC2)nc1N (stereo not shown) [Example 8-3, 2-amino-6-[2-(cyclopropylmethoxy)-6-hydroxyphenyl]-N-methyl-4-(3-piperidinyl)nicotinamide hydrochloride] |
| < 0.5 µM | Nc1nc(-c2c(O)cccc2OCC2CC2)cc(C2CCNCC2)c1COc1ccccc1 [Example 21-3, 2-[6-amino-5-(phenoxymethyl)-4-(4-piperidinyl)-2-pyridinyl]-3-(cyclopropylmethoxy)phenol hydrochloride] |
| < 0.5 µM | CC(=O)c1c(C2CCCNC2)cc(-c2ccccc2O)nc1N (stereo not shown) [Example 15-3, 1-[2-amino-6-(2-hydroxyphenyl)4-(3-piperidinyl)-3-pyridinyl]ethanone hydrochloride] |
| < 0.5 µM | N#Cc1c(C2=CCCNC2)cc(-c2ccccc2O)nc1N [Example 1-9, 2′-amino-6′-(2-hydroxyphenyl)-1,2,5,6-tetrahydro-3,4′-bipyridine-3′-carbonitrile hydrochloride] |
| < 0.5 µM | N#Cc1c(C2CCCNC2)cc(-c2sccc2O)nc1N (stereo not shown) [Example 1-7, 2-amino-6-(3-hydroxy-2-thienyl)-4-(3-piperidinyl)nicotinonitrile hydrobromide] |
| < 0.5 µM | CCOC(=O)NCc1c(C2CCCNC2)cc(-c2c(O)cccc2OCC2CC2)nc1N (stereo not shown) [Example 23-2, ethyl [2-amino-6-[2-(cyclopropylmethoxy)-6-hydroxyphenyl]-4-(3-piperidinyl)-3-pyridinyl]methylcarbamate hydrochloride] |
| < 0.5 µM | Nc1nc(-c2c(O)cccc2F)cc(C2CCCNC2)c1CO (stereo not shown) [Example 11-2, 2-[6-amino-5-(hydroxymethyl)-4-(3-piperidinyl)-2-pyridinyl]-3-fluorophenol hydrochloride] |
| < 0.5 µM | NC(=O)c1c(C2CCCNC2)cc(-c2ccccc2O)nc1N (stereo not shown) [Example 7-1, 2-amino-6-(2-hydroxyphenyl)-4-(3-piperidinyl)nicotinamide hydrochloride] |

| IC50 | Structure (SMILES) |
| --- | --- |
| < 0.5 µM | Nc1nc(-c2c(O)cccc2OCC2CC2)cc(C2CCCNC2)c1CSc1ccccc1 (stereo not shown) [Example 21-1, 2-[6-amino-5-[(phenylsulfanyl)methyl]-4-(3-piperidinyl)-2-pyridinyl]-3-(cyclopropylmethoxy)phenol hydrochloride] |
| < 0.5 µM | Oc1cccc(OCC2CC2)c1-c1cc(C2CCCNC2)c2c(n1)NCOC2 (stereo not shown) [Example 17-1, 3-(cyclopropylmethoxy)-2-[5-(3-piperidinyl)-1,4-dihydro-2H-pyrido[2,3-d][1,3]oxazin-7-yl]-phenol hydrochloride] |
| 0.5 to 2 µM | Oc1ccccc1-c1cc(C2CCCNC2)c2cn[nH]c2n1 (stereo not shown) [Example 16-1, 2-(4-Piperidin-3-yl-1H-pyrazolo[3,4-b]pyridin-6-yl)-phenol hydrochloride] |
| < 0.5 µM | Nc1cc2c(C3CCCNC3)cc(-c3c(O)cccc3OCC3CC3)nc2[nH]c1=O (stereo not shown) [Example 29-01, 3-amino-7-[2-(cyclopropylmethoxy)-6-hydroxyphenyl]-5-(3-piperidinyl)-1,8-naphthyridin-2(1H)-one hydrochloride] |
| < 0.5 µM | O=C1NCc2c(C3CCNCC3)cc(-c3c(O)cccc3OCC3CC3)nc2N1 [Example 22-3, 7-[2-(cyclopropylmethoxy)-6-hydroxyphenyl]-5-(4-piperidinyl)-3,4-dihydro-1H-pyrido[2,3-d]pyrimidin-2-one hydrochloride] |
| < 0.5 µM | O=C(Nc1cc2c(C3CCCNC3)cc(-c3c(O)cccc3OCC3CC3)nc2[nH]c1=O)c1ccccc1 (stereo not shown) [Example 29-2, N-[7-[2-(cyclopropylmethoxy)-6-hydroxyphenyl]-2-oxo-5-(3-piperidinyl)-1,2-dihydro-1,8-naphthyridin-3-yl]benzamide hydrochloride] |
| < 0.5 µM | NC(Cc1ccccc1)c1cc(-c2ccccc2O)nc2c1COC(=O)N2 (stereo not shown) [Example 18-4/18-5, 5-(1-Amino-2-phenyl-ethyl)-7-(2-hydroxy-phenyl)-1,4-dihydro-pyrido[2,3-d][1,3]oxazin-2-one hydrochloride] |
| < 0.5 µM | CCCNC(=O)c1cc2c(C3CCCNC3)cc(-c3c(O)cccc3OCC3CC3)nc2[nH]c1=O (stereo not shown) [Example 31-1, 7-[2-(cyclopropylmethoxy)-6-hydroxyphenyl]-2-oxo-5-(3-pipedinyl)-N-propyl-1,2-dihydro-1,8-naphthyridine-3-carboxamide] |
| < 0.5 µM | O=C(O)c1cc2c(C3CCCNC3)cc(-c3c(O)cccc3OCC3CC3)nc2[nH]c1=O (stereo not shown) [Example 30-1, 7-(2-cyclopropylmethoxy-6-hydroxy-phenyl)-2-oxo-5-piperidin-3-yl-1,2-dihydro[1,8]naphthyridine-3-carboxylic acid hydrochloride] |
| 2 to 10 µM | CCCNc1nc(-c2ccccc2O)cc(C2CCCNC2)c1C#N (stereo not shown) [Example 4-2, 6-(2-hydroxyphenyl)-4-(3-piperidinyl)-2-(propylamino)nicotinonitrile hydrochloride] |
| 0.5 to 2 µM | Nc1nc(-c2c(O)cccc2OCc2ccccc2)cc2c1CN1CCCC2C1 (stereo not shown) [Example 20-1, 2-(6-amino-5,9-diazatricyclo[7.3.1.02,7]trideca-2,4,6-trien-4-yl)-3-(benzyloxy)phenol hydrochloride] |
| > 10 µM | CC(=O)Nc1n[nH]c2nc(-c3ccccc3O)cc(C3CCCNC3)c12 (stereo not shown) [Example 5-2, N-[6-(2-hydroxyphenyl)-4-(3-piperidinyl)-1H-pyrazolo[3,4-b]pyridin-3-yl]acetamide hydrochloride] |
| < 0.5 µM | Cc1c(C2CCCNC2)cc(-c2ccccc2O)nc1N (stereo not shown) [Example 14-1, 2-[6-amino-5-methyl-4-(3-piperidinyl)-2-pyridinyl]phenol hydrochloride] |
| < 0.5 µM | Nc1nc(-c2ccccc2O)cc2c1CNC2Cc1ccccc1 (stereo in doubt) [Example 20-3, 2-[(1S)-4-amino-1-benzyl-2,3-dihydro-1H-pyrrolo[3,4-c]pyridin-6-yl]phenol hydrochloride] |
| < 0.5 µM | COCc1c(C2CCCNC2)cc(-c2ccccc2O)nc1N (stereo not shown) [Example 13-1, 2-[6-amino-5-(methoxymethyl)-4-(3-piperidinyl)-2-pyridinyl]phenol hydrochloride] |
